What was measured:
[1] = tested on: Vero cells; assay: MTT toxicity assay in Vero cells; type: cell-based, African green monkey; details: MTT, 24, 48 and 72 hours
Protocol: (§1) African green monkey kidney cells (Vero) and Human neonatal lung fibroblasts cells (MRC-5) were obtained from the American Type Culture Collection, (Rockville, Md.). Vero cells were grown and maintained in Medium 199 supplemented with 5% fetal bovine serum, 0.075% NaHCO3 and 50 μg/ml gentamycin sulfates. MRC-5 cells were grown and maintained in Minimal Essential Medium with Earle's Balanced Salt Solution containing 2 mM L-glutamine supplemented with 10% fetal bovine serum, 0.lmM nonessential amino acids, 1 mM sodium pyruvate, 2% sodium bicarbonate and 50 μg/ml gentamycin sulfate.
(§2) Cells were exposed to drug treated media of varying concentrations. […] I3C concentrations used in these studies were 50% and 75% of the CD50. Cells were seeded onto a 96 well at 10,000 cells/well and grown for 24 hours. Twelve different serially diluted concentrations of I3C were then incubated with the cells for 24, 48 and 72 hours and colorimetric readings were taken at these time points using the MTT reagent. Controls included in the 96 well plate were, media alone that contained no cells but with I3C, media with cells but no I3C, and plain media with 0.2% DMSO and no cells or drug. At 24, 48 and 72 hours a sigmoidal curve was generated for each time period and the data analyzed. Approximately, 500 μM was the concentration at which 50 percent of the cells died (CD50).

[2] = tested on: MRC-5 cells; assay: MTT toxicity assay in MRC-5 cells; type: cell-based, Human; details: MTT, 24, 48 and 72 hours
Protocol: as §1, §2

[3] = tested on: HSV-1; assay: HSV-1 replication in Vero cells, plaque forming units (pfu) titration; type: cell-based, herpes simplex virus type 1 (HSV-1)
Protocol: Cultures of African green monkey kidney cells (Vero) cells, obtained from the American Type Culture Collection, Rockville, Md., were grown to confluence in Medium 199 supplemented with 5% fetal bovine serum, 0.075% NaHCO3, and 50 μg/ml gentamycin sulfate in 25 cm^2 tissue culture flasks. Cells were infected with HSV-1 at a multiplicity of infection (moi) of one and incubated at room temperature for one hour to allow for virus attachment to and penetration of the cell. Under these conditions, approximately half of the cells are infected with virus. Thereafter, the cultures were rinsed three time with media and incubated in medium containing 133 μM, 267 μM, or 400 μM I3C prepared in 0.2% dimethyl-sulfoxide (DMSO). Controls were treated identically, but were incubated without the I3C.
Upon addition of the medium to the cultures and at 24 hours time periods thereafter, i.e., 0 hours, 24 hours, 48 hours, and 72 hours after addition of the drug, cells and medium were frozen at −70° C. Samples were then thawed, sonicated and titrated on Vero cells to determine the number of plaque forming units (pfu's) of virus produced by each culture.
Vero cell cultures were infected with HSV-1 as described above in Example 1 except that the cells were treated with 267 μM of I3C for 6, 12, or 24 hours prior to infection. Cells were infected with HSV-1 at an moi of 1 for 1 hour. Following removal of the unabsorbed virus, the infected cells were incubated in media containing 0.2% DMSO (control cells) or in media containing 267 μM of I3C (test cells) At 24, 48, and 72 hours after infection, the number of pfu's present in the cells and medium of the I3C -treated cultures was determined.

[4] = tested on: acyclovir resistant HSV-1; assay: Acyclovir-resistant HSV-1 replication in Vero cells, pfu determination; type: cell-based, herpes simplex virus type 1 (HSV-1)
Protocol: Vero cell cultures were infected with acyclovir resistant HSV-1 at an moi of one for one hour. Test cells were treated with 267 μM of I3C immediately after or 24 hours prior to infection. At 24, 48, and 72 hours after infection, the number of pfu's present in the test cell pre-treated with I3C or treated with I3C post infection were determined.

[5] = tested on: HSV-2; assay: HSV-2 replication in Vero cells, pfu determination; type: cell-based, herpes simplex virus type 2 (HSV-2); details: 267 μM I3C
Protocol: Vero cell cultures that had been pretreated with 267 μM of I3C were infected with HSV-2 at an moi of one for 1 hour At 24, 48, and 72 hours after infection, the number of pfu's present in the cells and medium of the I3C pre-treated cultures were determined. In addition, Vero cells were infected with HSV-2 at an moi of one for 1 hour, and thereafter the cultures were rinsed three time with media and incubated in medium containing 267 μM prepared in 0.2% dimethyl-sulfoxide (DMSO). At 24, 48, and 72 hours after infection, the number of pfu's present in the test cell pre-treated with I3C or treated with I3C post infection were determined.

[6] = tested on: HSV-1; assay: HSV-1 replication in MRC-5 cells, pfu determination; type: cell-based, herpes simplex virus type 1 (HSV-1); details: 375 μM I3C, pretreatment for 24 or 36 hours prior to infection
Protocol: MRC-5 cell cultures were infected with HSV-1 as described above in Example 1 except that the cells were treated with 375 μM of I3C following infection or for 12, 24, or 36 hours prior to infection. Cells were infected with HSV-1 at an moi of 1 for 1 hour. Following removal of the unabsorbed virus, the infected cells were incubated in media containing 0.2% DMSO (control cells) or in media containing 375 μM of I3C (test cells) At 24, 48, and 72 hours after infection, the number of pfu's present in the cells and medium of the cultures treated with I3C prior to or after infection was determined.

[7] = tested on: HSV; assay: Direct inactivation of HSV by incubation with I3C, plaque assay; details: HSV mixed with I3C solution (267 μM); 1, 10, 30 and 60 minutes; compared to control virus
Protocol: To determine if I3C could directly inactivate […] studies were done in which HSV was mixed with a solution of I3C (267 μM). Samples were taken at 1, 10, 30 and 60 minutes and the presence of infectious virus determined by the plaque assay.

Structure (SMILES): OCc1c[nH]c2ccccc12 [I3C, indole-3-carbinol]
- CD50 (concentration at which 50 percent of the cells died) [1]: ~500 µM
- CD50 (concentration at which 50 percent of the cells died) [2]: ~500 µM
- inhibition of HSV replication ([3]; 267 μM I3C, Vero cells incubated 12 to 24 hours prior to infection): dramatic and complete
- HSV replication ([3]; 267 μM I3C, Vero cells pre-incubated 6 hours prior to infection, 24, 48, 72 hours after infection): proceeded at a reduced rate for 24 hours and then rapidly decreased at 48 and 72 hours to undetectable levels
- infectious HSV particles in cultures ([3]; 400 μM I3C continuously post infection, Vero cells, by 72 hours): virtually undetectable
- inhibition of formation of infectious virus particles ([3]; 400 μM I3C post infection, Vero cells, moi 1, at 24 hours): more than 99%
- dose dependence of inhibition of virus replication ([3]; 133, 267, 400 μM I3C post infection, Vero cells): dose dependent
- replication of acyclovir-resistant HSV ([4]; 267 μM I3C post infection, Vero cells, 24, 48, 72 hours after infection): proceeded at a reduced rate for 24 hours and then rapidly decreased at 48 and 72 hours to undetectable levels
- inhibition of acyclovir-resistant HSV 1 replication ([4]; 267 μM I3C, Vero cells incubated 24 hours prior to infection): dramatic and complete
- HSV-2 replication, first 24 hours ([5]; Vero cells treated 24 hours pre-infection): proceeded at a reduced rate for 24 hours
- HSV-2 replication, first 24 hours ([5]; Vero cells treated post infection): proceeded at a reduced rate for 24 hours
- HSV-2 replication at 48 and 72 hours ([5]; post-treated Vero cells): decreased at 48 and 72 hours
- HSV-2 replication at 48 and 72 hours ([5]; pre-treated Vero cells): decreased at 48 and 72 hours
- HSV-1 replication in MRC5 cells [6]: inhibition of HSV-1 replication
- direct inactivation of HSV [7]: no significant inactivation of HSV
